Test results: patent US20260216255A1, “STRAIN OF COLLINSELLA, AND PHARMACEUTICAL COMPOSITION THEREOF” (MOON (GUANGZHOU) BIOTECH CO., LTD., priority 2022, published 2026)

System: strain MNH 18574
Assay: Antibiotic sensitivity test by disk diffusion method
Assay type: cell-based, Collinsella sp.
Settings: for Diameter of inhibition zone: strain MNH 18574
Procedure: An antibiotic sensitivity test was carried out on the strain MNH 18574 by a disk diffusion method.

Row | Compound | Diameter of inhibition zone [mm] | sensitivity or resistance of strain MNH 18574 to the antibiotic
1 | CN(C)[C@@H]1C(O)=C(C(N)=O)C(=O)[C@@]2(O)C(O)=C3C(=O)c4c(O)cccc4[C@@](C)(O)[C@H]3C[C@@H]12 [Tetracycline (TET), Tetracycline] | 0 | 
2 | Penicillin [Penicillin (PEN)] | 24.51 | sensitive
3 | Trimethoprim-sulfamethoxazole [Trimethoprim-sulfamethoxazole (T/S)] | 0 | resistant
4 | CCC[C@@H]1C[C@@H](C(=O)N[C@@H]([C@H]2O[C@H](SC)[C@H](O)[C@@H](O)[C@H]2O)[C@@H](C)O)N(C)C1 [Lincomycin (LIN), Lincomycin] | 0 | resistant
5 | O=C(O)c1cn(C2CC2)c2cc(N3CCNCC3)c(F)cc2c1=O [Ciprofloxacin (CFX), Ciprofloxacin] | 0 | resistant
6 | CC1(C)S[C@@H]2[C@H](NC(=O)[C@H](N)c3ccccc3)C(=O)N2[C@H]1C(=O)O [Ampicillin (AMP), Ampicillin] | 0 | resistant
7 | CC[C@H]1OC(=O)[C@H](C)[C@@H](O[C@H]2C[C@@](C)(OC)[C@@H](O)[C@H](C)O2)[C@H](C)[C@@H](O[C@@H]2O[C@H](C)C[C@H](N(C)C)[C@H]2O)[C@](C)(O)C[C@@H](C)C(=O)[C@H](C)[C@@H](O)[C@]1(C)O [Erythromycin (ERM), Erythromycin] | 0 | resistant
8 | O=C(N[C@H](CO)[C@H](O)c1ccc([N+](=O)[O-])cc1)C(Cl)Cl [Chloramphenicol (CLM), Chloramphenicol] | 27.64 | sensitive
9 | Gentamicin [Gentamicin (GEN)] | 0 | resistant
10 | CO/N=C(\C(=O)N[C@@H]1C(=O)N2C(C(=O)O)=C(CSc3nc(=O)c(=O)[nH]n3C)CS[C@H]12)c1csc(N)n1 [Ceftriaxone (CTR), Ceftriaxone] | 0 | resistant
